Test [1] deals with T1, human 5-HT1A serotonergic receptor (Homo sapiens, UniProt P08908).
T1 construct: expressed in transfected cells; host or cells: HeLa (human), stably transfected; cell membranes
T1 sequence (P08908 1-422): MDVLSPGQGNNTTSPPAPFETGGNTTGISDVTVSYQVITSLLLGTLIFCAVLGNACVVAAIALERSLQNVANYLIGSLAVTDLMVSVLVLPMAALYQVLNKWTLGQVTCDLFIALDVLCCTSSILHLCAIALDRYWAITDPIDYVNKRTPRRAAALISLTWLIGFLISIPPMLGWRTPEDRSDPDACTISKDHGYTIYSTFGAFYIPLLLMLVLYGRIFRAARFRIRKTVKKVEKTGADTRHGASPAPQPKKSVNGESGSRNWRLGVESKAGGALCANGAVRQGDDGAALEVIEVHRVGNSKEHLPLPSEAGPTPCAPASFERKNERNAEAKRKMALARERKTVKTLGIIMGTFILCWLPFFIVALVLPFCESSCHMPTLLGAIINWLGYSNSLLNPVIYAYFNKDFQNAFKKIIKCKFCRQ
Nature of the test: Radioreceptor binding to recombinant human 5-HT1A receptors ([3H]8-OH-DPAT, HeLa cell membranes). On the procedure: Genomic clone G-21 coding for the human 5-HT1A serotonergic receptor is stably transfected in a human cell line (HeLa). HeLa cells were grown as monolayers in Dulbecco's modified Eagle's medium (DMEM), supplemented with 10% fetal calf serum and gentamicin ([…]), 5% CO2 at 37° C. Cells were detached from the growth flask at 95% confluence by a cell scraper and were lysed in ice-cold 5 mM Tris and 5 mM EDTA buffer (pH 7.4). Homogenates were centrifuged at 40000×g×20 min and pellets were resuspended in a small volume of ice-cold 5 mM Tris and 5 mM EDTA buffer (pH 7.4) and immediately frozen and stored at −70° C. until use. On the day of experiment, cell membranes were resuspended in binding buffer: 50 mM Tris HCl (pH 7.4), 2.5 mM MgCl2, 10 μM pargyline (Fargin et al., Nature 335, 358-360, 1988). Membranes were incubated in a final volume of 1 ml for 30 min at 30° C. with 0.2-1 nM [^3H]8-OH-DPAT, in absence or presence of competing drugs; non-specific binding was determined in the presence of 10 μM 5-HT. The incubation was stopped by addition of ice-cold Tris-HCl buffer and rapid filtration through 0.2% polyethyleneimine-pretreated Whatman GF/B or Schleieher & Schuell GF52 filters.
(§1) The inhibition of specific binding of the radioligands by the tested drugs was analyzed to estimate the IC50 value by using the non-linear curve-fitting program Allfit (De Lean et al., Am. J. Physiol. 235, E97-E102, 1978). The IC50 value is converted to an affinity constant (Ki) by the equation of Cheng & Prusoff (Cheng, Y. C.; Prusoff, W. H. Biochem. Pharmacol. 22, 3099-3108, 1973).

The next test has as its target α1 adrenergic receptors. The experiment in a line: Radioreceptor binding to native α1 adrenergic receptors ([3H]prazosin, rat cerebral cortex membranes). On the procedure:
Binding studies on native α1 adrenergic receptors were carried out in membranes of rat cerebral cortex. Male Sprague Dawley rats (200-300 g, Charles River, Italy) were killed by cervical dislocation and cerebral cortexes were dissected and immediately frozen and stored at −70° C. until use. Tissue was homogenized (2×20 sec) in 50 volumes of cold 50 mM Tris-HCl buffer pH 7.4, using a Polytron homogenizer (speed 7). Homogenates were centrifuged at 48000×g for 10 min, resuspended in 50 volumes of the same buffer, incubated at 37° C. for 15 min and centrifuged and resuspended twice more. The final pellets were suspended in 100 volumes of 50 mM Tris-HCl buffer pH 7.4, containing 10 μM pargyline and 0.1% ascorbic acid. Membranes were incubated in a final volume of 1 ml for 30 min at 25° C. with 0.1-0.5 nM [^3H]prazosin, in the absence or presence of competing drugs; non-specific binding was determined in the presence of 10 μM phentolamine.
The incubation was stopped by addition of ice-cold 50 mM Tris-HCl buffer and rapid filtration through 0.2% polyethyleneimine-pretreated Whatman GF/B or Schleicher & Schuell GF52 filters. The filters were then washed with ice-cold buffer and the radioactivity retained on the filters counted by liquid scintillation spectrometry.
as §1

Test [2] concerns rhythmic bladder voiding contractions. The experiment in a line: Volume-induced rhythmic bladder voiding contractions in anaesthetized rats. It counts as in vivo, rat. Conditions: intravenous administration, anaesthetized rats; for ED50: Rattus norvegicus, extrapolated dose inducing a reduction of the number of contractions >30% in 50% of treated rats, read-out: ED50 (frequency); for ED10min: extrapolated dose inducing 10 min of disappearance of the contractions. As for the experimental part: Female Sprague Dawley rats weighing 225-275 g (Crl: CDo BR, Charles River Italia) were used. The animals were housed with free access to food and water and were maintained on a forced 12 h alternating light-dark cycle at 22-24° C. for at least one week, except during the experiment. The activity on the rhythmic bladder voiding contractions was evaluated according to the method of Dray (J. Pharmacol. Methods, 13:157, 1985), with some modifications as in Guarneri (Pharmacol. Res., 27:173, 1993). Briefly, rats were anesthetized by subcutaneous injection of 1.25 g/kg (5 ml/kg) urethane, after which the urinary bladder was catheterized via the urethra using PE 50 polyethylene tubing filled with physiological saline. The catheter was tied in place with a ligature around the external urethral orifice and was connected with conventional pressure transducers (Statham P23 ID/P23 XL). […] The bladder was then filled via the recording catheter by incremental volumes of warm (37° C.) saline until reflex bladder voiding contractions occurred (usually 0.8-1.5 ml). For intravenous (i.v.) injection of bioactive compounds, PE 50 polyethylene tubing filled with physiological saline was inserted into the jugular vein.
From the cystometrogram, the number of contractions recorded 15 min before (basal values) and after treatment, as well as the mean amplitude of these contractions (mean height of the peaks in mm Hg) was evaluated.
Since most compounds produced an effect that was relatively rapid in onset and led to a complete cessation of bladder contractions, bioactivity was conveniently estimated by measuring the duration of bladder quiescence (i.e., the duration of time during which no contractions occurred). Moreover, the number of animals tested showing a reduction in the number of contractions >30% of that observed in the basal period, was recorded. […] Also computed in this manner were extrapolated doses which induced a reduction of the number of contractions of greater than 30% in 50% of treated rats (ED50, frequency) by the method of Bliss (Bliss C. I., Quart. J. Pharm. Pharmacol. 11, 192-216, 1938). After the suppressive effects of drug injection wore off, the height of the contractile peaks was compared with the height of the peaks previously recorded after the control intravenous administration of vehicle. The potency of the tested compounds (ED50 value, the extrapolated doses inducing a 30% reduction of amplitude of the contractions in 50% of treated rats) was evaluated on a quantal basis by the method of Bliss (Bliss C. I., Quart. J. Pharm. Pharmacol. 11, 192-216, 1938).

Test [3] deals with T2, 5-HT2A serotonergic receptors (Rattus norvegicus, UniProt P14842).
T2 construct: from tissue; host or cells: cerebral cortex of male Sprague Dawley rats, membranes
T2 sequence (P14842 whole entry): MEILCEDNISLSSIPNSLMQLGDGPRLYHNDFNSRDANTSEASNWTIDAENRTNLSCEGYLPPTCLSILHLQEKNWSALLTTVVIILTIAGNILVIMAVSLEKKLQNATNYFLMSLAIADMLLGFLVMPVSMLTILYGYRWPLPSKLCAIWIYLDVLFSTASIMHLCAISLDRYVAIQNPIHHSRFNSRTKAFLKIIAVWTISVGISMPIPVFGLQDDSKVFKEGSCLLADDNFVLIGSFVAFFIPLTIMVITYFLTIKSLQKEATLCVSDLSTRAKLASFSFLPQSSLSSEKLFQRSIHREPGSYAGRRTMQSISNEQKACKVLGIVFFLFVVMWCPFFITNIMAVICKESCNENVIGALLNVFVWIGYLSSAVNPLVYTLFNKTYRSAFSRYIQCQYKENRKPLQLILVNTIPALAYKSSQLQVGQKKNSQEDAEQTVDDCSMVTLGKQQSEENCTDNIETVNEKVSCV
The experiment in a line: Radioreceptor binding to native 5-HT2A serotonergic receptors ([3H]ketanserin, rat cerebral cortex membranes). Conditions: rat cerebral cortex membranes, [3H]ketanserin; read-out: Ki 5-HT2A. As for the experimental part:
Binding studies on native 5-HT2A serotonergic receptors (Craig A. and Kenneth J., Life Sci. 38, 117-127, 1986) were carried out in membranes of rat cerebral cortex. Male Sprague Dawley rats (200-300 g, S D Harlan/Nossan, Italy) were killed by cervical dislocation and cerebral cortexes were excised and immediately frozen in liquid nitrogen and stored at −70° C. until use. Tissues were homogenized (2×20 sec) in 50 volumes of cold 50 mM Tris-HCl buffer pH 7.4, using a Polytron homogenizer (speed 7). Homogenates were centrifuged at 49000×g for 10 min, resuspended in 50 volumes of the same buffer, incubated at 37° C. for 15 min and centrifuged and resuspended twice more. The final pellets were suspended in 100 volumes of 50 mM Tris-HCl buffer pH 7.7. Membranes were incubated in a final volume of 1 ml for 20 min at 37° C. with 0.7-1.3 nM [^3H]ketanserin (5-HT2A receptors), in absence or presence of competing drugs. Non-specific binding was determined in the presence of 2 μM ketanserin. The incubation was stopped by addition of ice-cold 50 mM Tris-HCl buffer and rapid filtration through 0.2% polyethyleneimine pretreated Whatman GF/B or Schleicher & Schuell GF52 filters. The filters are then washed with ice-cold buffer and the radioactivity retained on the filters was counted by liquid scintillation spectrometry.
as §1

Setting [4] is: recombinant human receptor in HeLa membranes, [3H]8-OH-DPAT, read-out: Ki 5-HT1A.

Read-outs that look alike come from different tables or passages of the source.

The Ki is the dissociation constant of the complex between target and ligand, obtained from inhibition or displacement. In general, ED50 refers to the midpoint of the dose-response relation.

With `COc1ccccc1N1CCN(CCC(c2ccccc2)c2ccccn2)CC1` (stereo not drawn) [Ex. 9, 1-[3-phenyl-3-(2-pyridyl)propyl]-4-(2-methoxyphenyl)piperazine], the Ki in test [1] (setting [4]) is 0.00062 µM; on α1 adrenergic receptors it was 0.268 µM; in test [3], 1.02 µM. Moreover, the ED50 in test [2] is 0.025 mg/kg. Besides, the ED10min in test [2] was 0.077 mg/kg.

With `COc1ccccc1N1CCN(CCC(C(N)=O)(c2ccccc2)c2ccccn2)CC1` (stereo not drawn) [Ex. 10, 1-[3-aminocarbonyl-3-phenyl-3-(2-pyridyl)propyl]-4-(2-methoxyphenyl)piperazine], the Ki in test [1] turned out to be 0.0193 µM; at α1 adrenergic receptors it was 1.32 µM; in test [3], 0.683 µM. The ED50 in test [2] was 0.18 mg/kg. In test [2], the ED10min is 0.228 mg/kg.

In the case of `COc1ccccc1N1CCN(CCC(O)(c2ccccn2)c2ccccn2)CC1` [Ex. 14, 1-[3-hydroxy-3,3-bis-(2-pyridyl)propyl]-4-(2-methoxyphenyl)piperazine], the Ki is 0.00034 µM in test [1] (setting [4]), 0.114 µM on α1 adrenergic receptors and greater than 1 µM in test [3]. Also, the ED50 in test [2] is 0.036 mg/kg. For the same compound, in test [2], the ED10min was 0.127 mg/kg.

The record behind these values is patent US6894052B1, “Diarylalkylpiperazines active on the lower urinary tract” (Recordati S.A. Chemical and Pharmaceutical Company, priority 1997, dated 2005).
